In paper PMC7985297 (Communications Biology, 2021):
Where “and” joins values, the source holds several entries; their conditions need not be identical. Equal entries are not always repeated. Entries after “also recorded” stand apart in the source; their conditions may differ.

How the values were obtained:
full-length AR [1] = target: T1, full-length AR (Homo sapiens, UniProt P10275, T878A); assay: PSA(6.1 kb)-luciferase AR-driven reporter assay in LNCaP cells; format: cell-based; details: LNCaP, R1881 1 nM, 24 h; read-out: IC50, androgen-induced PSA(6.1 kb)-luciferase activity
T1 construct: Transcriptional activity of full-length AR was assessed in LNCaP cells; endogenous in cells; host or cells: LNCaP
T1 sequence (P10275 1-920 T878A): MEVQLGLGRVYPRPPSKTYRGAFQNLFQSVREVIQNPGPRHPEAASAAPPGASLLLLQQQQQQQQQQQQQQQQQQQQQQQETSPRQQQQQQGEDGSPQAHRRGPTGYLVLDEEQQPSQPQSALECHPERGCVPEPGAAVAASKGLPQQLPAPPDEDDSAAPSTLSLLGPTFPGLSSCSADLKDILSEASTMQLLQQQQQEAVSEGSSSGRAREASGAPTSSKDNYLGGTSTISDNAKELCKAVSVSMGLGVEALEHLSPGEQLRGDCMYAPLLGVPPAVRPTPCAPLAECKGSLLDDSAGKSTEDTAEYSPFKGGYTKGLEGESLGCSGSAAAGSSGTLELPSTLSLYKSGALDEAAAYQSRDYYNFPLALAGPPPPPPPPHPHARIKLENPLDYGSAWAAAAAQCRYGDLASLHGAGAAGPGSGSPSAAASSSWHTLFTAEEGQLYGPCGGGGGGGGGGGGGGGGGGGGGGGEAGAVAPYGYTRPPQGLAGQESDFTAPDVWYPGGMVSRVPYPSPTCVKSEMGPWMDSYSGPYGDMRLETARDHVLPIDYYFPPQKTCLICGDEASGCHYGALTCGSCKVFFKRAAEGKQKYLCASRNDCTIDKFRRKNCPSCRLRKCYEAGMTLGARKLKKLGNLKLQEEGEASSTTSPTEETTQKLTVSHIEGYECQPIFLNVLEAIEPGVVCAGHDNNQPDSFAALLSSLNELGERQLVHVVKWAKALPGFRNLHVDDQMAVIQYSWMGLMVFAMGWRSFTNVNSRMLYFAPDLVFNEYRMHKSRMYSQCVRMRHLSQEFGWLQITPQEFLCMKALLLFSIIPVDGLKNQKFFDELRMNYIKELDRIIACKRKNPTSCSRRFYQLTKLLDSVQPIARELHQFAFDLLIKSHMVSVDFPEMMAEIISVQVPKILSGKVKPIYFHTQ

[2] = target: T2, Gal4-ARN fragments and Gal4-AR234–391 constructs (Homo sapiens, UniProt P10275); assay: Transactivation assay with Gal4-ARN fragments and Gal4-AR234–391 proline to glycine mutants; format: cell-based; details: juglone 20 µM, IL-6 50 ng/mL, 24 h
T2 construct: expressed in transfected cells; host or cells: LNCaP
Method: (§1) Fig. 3 Pin1 interacts with the AR NTD and regulates transactivation. a, b Transactivation assays performed in LNCaP cells expressing a vector encoding the human AR NTD fused to a Gal4 DNA-binding domain (Gal4-ARN). […] Input samples show Pin1 expression from lysates before the pull-down. i Co-immunoprecipitation assay showing AR protein co-immunoprecipitated with STAT3 from LNCaP cells incubated with EPI-002 (EPI, 35 μM), juglone (JUG, 30 μM), or vehicle (VEH, DMSO), and IL-6 (50 ng/mL) for 6 h. j, k Levels of phosphorylated MAPK (isoforms p44 and p42) and phosphorylated STAT3 (Tyr705 and Ser727) from LNCaP cells pre-treated with juglone (20 µM) and then stimulated with IL-6 (50 ng/mL) for 15 min. Error bars show the mean ± s.e.m. *P < 0.05, **P < 0.01, ***P < 0.001; ns not significant.

[3] = target: T3, Gal4-ARN fragments and Gal4-AR234–391 constructs (Homo sapiens, UniProt P10275, P259G); assay: as above; format: cell-based; details: juglone 20 µM, IL-6 50 ng/mL, 24 h
T3 construct: expressed in transfected cells; host or cells: LNCaP
Method: as §1

[4] = test system: Gal4-ARN fragments and Gal4-AR234–391 constructs; assay: as above; format: cell-based, human; details: juglone 20 µM, IL-6 50 ng/mL, 24 h
Method: as §1

[5] = target: T4, Gal4-ARN fragments and Gal4-AR234–391 constructs (Homo sapiens, UniProt P10275, P311G); assay: as above; format: cell-based; details: juglone 20 µM, IL-6 50 ng/mL, 24 h
T4 construct: expressed in transfected cells; host or cells: LNCaP
Method: as §1

full-length AR [6] = target: T1, full-length AR; assay: Probasin (PB)-luciferase AR-driven reporter assay in LNCaP cells; format: cell-based; details: 24 h, R1881 1 nM
[7] = test system: Pin1 and cell cycle proteins in LN95 cells; assay: Western blot of Pin1 and cell cycle proteins in LN95 cells; details: for CyclinA2 protein level (Fig. 6a) / CyclinB1 protein level (Fig. 6a) / CyclinD1 protein level (Fig. 6a) / Pin1 protein level (Fig. 6a) / p21 protein level (Fig. 6a) / p27 protein level (Fig. 6a): relative to 0 μM = 1, replicate experiments by date
Method: Data shown are the means ± s.e.m. from 3–4 independent experiments. Statistical significance was determined by ANOVA using the Dunnett’s multiple comparisons test. *P < 0.05, **P < 0.01, ***P < 0.001.
For western blot analyses, membranes were blocked with 5% non-fat milk in phosphate-buffered saline containing 0.1% Tween-20 (PBS-T) and then incubated overnight at 4 °C with primary antibody (1:200–5000) in PBS-T containing 5% non-fat milk or 2% BSA. After incubation with the primary antibody, the membrane was washed three times with TBS-T, incubated with a horseradish peroxidase-conjugated antibody secondary antibody (1:5000–10,000) for 1–2 h at room temperature, and washed three times with PBS-T and two more times with PBS before chemiluminescence was detected with ECL Prime Reagent (GE Healthcare Life Science, Mississauga, ON). Western blot images were captured using the ChemiDoc MP Imaging System (Bio-Rad Laboratories, Hercules, CA) and quantified using ImageJ software.

serum PSA = assay: Quantification of serum PSA (ELISA) in xenograft-bearing mice; format: in vivo; details: ATRA compared to placebo; on average; did not reach statistical significance
Method: Serum levels for total PSA were measured by a PSA ELISA kit (Anogen, Mississauga, ON) with a lower limit sensitivity of ~1 ng/mL. Whole blood was sampled from the tail vein on days indicated or by cardiac puncture immediately after euthanasia. The serum fraction was separated by centrifugation at 12,000 rpm for 3 min at room temperature and then stored at −20 °C until further analysis. Serum samples were diluted tenfold for the assay and were compared to calibration standards, according to the manufacturer’s protocol. The concentration of total PSA was determined by a VersaMax ELISA microplate reader by measuring absorbance at 450 nm with a reference wavelength of 650 nm.

LN95 cells = assay: Cell cycle analysis by flow cytometry, LN95; details: LN95, ATRA 5 and 10 μM, EPI-002 25 μM, 24 or 48 h
Method: After treatments, the cells were labeled with BrdU (10 μM) for 2 h and then trypsinized, washed, and fixed in 70% EtOH/PBS at −20 °C. Approximately 2.5–5.0 × 10^5 of fixed cells were labeled with fluorescein (FITC)-conjugated anti-BrdU antibody (B44; BD Biosciences) and the DNA content was stained with 7-AAD (Sigma). The data were collected with a BD FACSCalibur flow cytometer (BD Biosciences). FITC and 7-AAD fluorescence were detected in the FL1 and FL3 channels, respectively, using CellQuest Pro and analyzed by FlowJo V10 software (Ashland, Oregon). Pre-gating was performed on all samples by plotting FL3-W × FL3-H to exclude doublets from the analysis.

T3 sequence (P10275 236-393 P259G): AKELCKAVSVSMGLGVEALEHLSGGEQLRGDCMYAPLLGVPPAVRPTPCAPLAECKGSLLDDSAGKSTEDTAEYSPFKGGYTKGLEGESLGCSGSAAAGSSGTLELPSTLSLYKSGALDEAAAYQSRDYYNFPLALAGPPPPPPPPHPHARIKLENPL
T4 sequence (P10275 236-393 P311G): as the sequence (P10275 236-393 P259G) above, with G24P, P76G counted along it

O=C1C=CC(=O)c2c(O)cccc21 [juglone]
IC50 (full-length AR [1]): 10.9 µM
transactivation, AR234-391 (Fig. 3e) [2]: 5.441 and 3.73 and 3.732
transactivation, Gal4-AR234–391 P257G (Fig. 3f) [3]: 5.034 and 6.44 and 8.824
effect on IL-6-induced transactivation of Gal4-AR234–391 proline to glycine mutants [4]: inhibited the P257G and P309G mutants to levels that were comparable to wild-type; also recorded: had no effect on the P257G/P309G double mutant
effect on IL-6-induced transactivation of Gal4-AR NTD fragments (construct named in the value) [4]: inhibited transactivation of AR 234–391 and intact AR NTD (1–558); also recorded: only had a modest effect on AR 392–558; also recorded: did not inhibit the activity of Gal4DBD (empty vector) or AR 1–233
transactivation, Gal4DBD (Fig. 3f) [4]: 0.951 and 0.829 and 0.839
transactivation, Gal4-AR234–391 P309G (Fig. 3f) [5]: 4.289 and 4.331 and 7.708
remaining activity at 10 µM (full-length AR [6]; inhibitor 10 μM, read-out: PB-luciferase activity normalized to the induction by R1881 (=100) (Fig. 2b)): 22.5%
IC50 (full-length AR [6]; read-out: IC50, androgen-induced PB-luciferase activity): 6.45 µM

CC1=C(/C=C/C(C)=C/C=C/C(C)=C/C(=O)O)C(C)(C)CCC1 [ATRA, all-trans retinoic acid]
CyclinA2 protein level (Fig. 6a) ([7]; 1 μM): 1 and 0.69 and 0.64
CyclinB1 protein level (Fig. 6a) ([7]; 1 μM): 1.17 and 0.87 and 1.22
CyclinD1 protein level (Fig. 6a) ([7]; 1 μM): 0.71 and 0.24 and 0.7 and 0.33
Pin1 protein level (Fig. 6a) ([7]; 1 μM): 0.8 and 0.7 and 0.86 and 0.56
p21 protein level (Fig. 6a) ([7]; 1 μM): 1.19 and 0.73 and 1.3
p27 protein level (Fig. 6a) ([7]; 1 μM): 0.93 and 0.87 and 1.2
CyclinA2 protein level (Fig. 6a) ([7]; 5 μM): 0.66 and 0.01 and 1.22
CyclinB1 protein level (Fig. 6a) ([7]; 5 μM): 0.9 and 0.62 and 1.39
CyclinD1 protein level (Fig. 6a) ([7]; 5 μM): 0.34 and 0.13 and 0.42 and 0.23
Pin1 protein level (Fig. 6a) ([7]; 5 μM): 0.63 and 0.26 and 0.56 and 0.35
p21 protein level (Fig. 6a) ([7]; 5 μM): 0.81 and 0.2 and 1.37
p27 protein level (Fig. 6a) ([7]; 5 μM): 1.19 and 1.12 and 1.3
CyclinA2 protein level (Fig. 6a) ([7]; 10 μM): 0.13 and 0 and 0.23
CyclinB1 protein level (Fig. 6a) ([7]; 10 μM): 0.63 and 0.58 and 0.55
CyclinD1 protein level (Fig. 6a) ([7]; 10 μM): 0.01 and 0.35 and 0.23 and 0.05
Pin1 protein level (Fig. 6a) ([7]; 10 μM): 0.56 and 0.13 and 0.39 and 0.14
p21 protein level (Fig. 6a) ([7]; 10 μM): 1.42 and 0.19 and 0.58
p27 protein level (Fig. 6a) ([7]; 10 μM): 1.39 and 2.2 and 1.28
effect on cellular Pin1 protein levels ([7]; LN95, 0–10 µM): dose-dependent decrease in Pin1 levels
effect on expression of cyclins D1, A2, B1 ([7]; LN95, ATRA 0–10 µM): significantly decreased the expression of cyclin D1 and cyclin A2; also recorded: not cyclin B1
effect on levels of CDK inhibitors p27Kip1 and p21Cip1 ([7]; LN95, ATRA 0–10 µM): selectively increased the levels of cyclin-dependent kinase (CDK) inhibitor p27^Kip1 but not p21^Cip1
reduction of PSA expression in sera, pilot study (serum PSA): 27%
effect on cell cycle / S phase population (LN95 cells): reduced the S phase population in a dose- and time-dependent manner
